Assay in all cases: biochemical
The target of assay [1] is DR1 (DRB1*0101) (Homo sapiens, UniProt P01903+P01911, A100R/D57E/F55L/F60I/F76Y/I96L/L162R/M171V/P40L/Q125E/R42F/V115G/Y59C). The assay is classed as binding.
Assay [2] concerns the target DR4w4 (DRB1*0401) (Homo sapiens, UniProt P01903+P01911, A100K/A169T/F76Y/I96L/K127E/L162R/M171V/N62H/P40V/Q125Y/R42H/S133A/S149N/S66Y/V115G/V209L/W38E). The assay is classed as binding.
Assay [3] deals with DR7 (DRB1*0701) (Homo sapiens, UniProt P01903+P01911, A100R/A102G/A103Q/D57E/D86V/E43K/F76Y/K127E/L162R/M171V/P40G/Q125H/Q99D/R33Q/R42Y/R54Q/S133A/S66F/T210M/V115G/Y107V/Y59L/Y89S). In kind it is binding.
The target in assay [4] is DRB1*0405 (Homo sapiens, UniProt P01903+P01911, A100R/A169T/D86S/F76Y/I96L/K127E/L162R/M171V/N62H/P40V/Q125Y/R42H/S133A/S149N/S66Y/V115G/V209L/W38E). The assay is classed as binding.
Assay [5] addresses DRB1*0802 (Homo sapiens, UniProt P01903+P01911, A100R/A103L/A169T/F76Y/H45Y/I96F/K41T/L162R/M171V/P40S/Q125H/Q178H/Q39Y/Q99D/R218S/R42G/S66Y/V115G/W38E). In kind it is binding.
For assay [6], the target named is DRB1*0901 (Homo sapiens, UniProt P01903+P01911, A100R/A103E/D57H/D86V/F55Y/F60I/F76Y/I96F/K127E/L162R/M171V/P40D/Q125H/Q99R/R33Q/R42F/S133A/S66N/T210M/V115G/W38K/Y107V/Y59G/Y89S). The assay is classed as binding.
For assay [7], the target named is DRB1*1302 (Homo sapiens, UniProt P01903+P01911, A100E/A169T/K41T/L162R/M171V/P40S/Q125H/Q178H/Q39Y/Q99D/R42S/S66N/T262R/V115G/W38E/Y61H). The assay is classed as binding.
The target of assay [8] is DRB1*1501 (Homo sapiens, UniProt P01903+P01911). In kind it is binding.
The target of assay [9] is DRB4*0101 (Homo sapiens, UniProt P01903+P13762, G164S). The assay is classed as binding.
The target in assay [10] is DRB1*1101 (Homo sapiens, UniProt P01903+P01911, A100R/A169T/A87E/I96F/K41T/L162R/M171V/P40S/Q125H/Q178H/Q39Y/Q99D/R42S/S66Y/T262R/V115G/W38E).
Assay [11] deals with DRB5*0101 (Homo sapiens, UniProt P01903+Q30154).

Where two headings read alike, the source gives them in different places. No end group written: not given here. Where only a bound is given, the exact number is not on record here.

DRB1*1101, sequence (P01903 26-254 limits assumed, other chains not shown): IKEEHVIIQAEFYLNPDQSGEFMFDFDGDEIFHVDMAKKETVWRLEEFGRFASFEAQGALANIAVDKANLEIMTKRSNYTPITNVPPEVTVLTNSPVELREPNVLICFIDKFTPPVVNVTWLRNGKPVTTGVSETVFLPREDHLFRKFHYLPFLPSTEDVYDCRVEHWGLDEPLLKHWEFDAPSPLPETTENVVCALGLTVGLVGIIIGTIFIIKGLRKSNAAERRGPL
DRB1*1302, sequence (P01903 26-254 limits assumed, other chains not shown): as above

As to `CC[C@H](C)[C@H](NC(=O)[C@H](C)NC(=O)[C@H](CCCCN)NC(=O)[C@H](Cc1c[nH]cn1)NC(=O)[C@H](C)NC(=O)[C@H](CCCCN)NC(=O)[C@H](CO)NC(=O)[C@H](CCCCN)NC(=O)[C@H](CO)NC(=O)[C@@H](NC(=O)[C@H](CC(N)=O)NC(=O)[C@H](Cc1ccc(O)cc1)NC(=O)[C@H](C)N)[C@@H](C)CC)C(=O)N[C@@H](CCC(=O)O)C(=O)N[C@@H](CC(C)C)C(=O)O` [Peptide 89.0159], the IC50 in assay [1] is 0.651 µM; in assay [2], more than 20 µM; in [3], more than 20 µM; in [4], more than 20 µM; in assay [5] it was more than 20 µM; in assay [6] it was more than 20 µM. The IC50 in assay [7], in assay [8], in assay [9], in [10] (Binding affinity DRB1 *1101) and in assay [11] (Binding affinity DRB5 *0101) was more than 20 µM throughout.

With CSAIEVQIALESLST [Peptide 90.0018], the IC50 in assay [2] is 0.24 µM; in assay [3], 5.26 µM; in assay [4], 3.32 µM; in assay [5], more than 20 µM; in assay [6], 12 µM; in assay [7], 0.617 µM. Moreover, the IC50 is more than 20 µM in assay [8], 0.029 µM in [9], more than 20 µM in assay [10] (Binding affinity DRB1 *1101) and more than 20 µM in assay [11] (Binding affinity DRB5 *0101).

Consider DSEIAYKYAQLADSD [Peptide 89.0051], for which the IC50 in assay [2] was more than 20 µM; in assay [3] it was more than 20 µM; in [4], 12.2 µM; in assay [5], 0.624 µM; in assay [6], 5.32 µM; in assay [7] it was more than 20 µM. In addition, the IC50 is 1.09 µM in assay [8], 1.34 µM in assay [9], 3.38 µM in assay [10] (Binding affinity DRB1 *1101) and more than 20 µM in [11] (Binding affinity DRB5 *0101).

In the case of FQVIELQMALETLSK [Peptide 89.0182], the IC50 in [1] was 1.01 µM; in assay [2], 0.224 µM; in assay [3], 0.183 µM; in [4], 0.232 µM; in [5], more than 20 µM; in [6], 0.751 µM. In addition, the IC50 in assay [7] was more than 20 µM; in assay [8], 14 µM; in assay [9], more than 20 µM; in assay [10] (Binding affinity DRB1 *1101), 2.11 µM.

On to GQVIVCPTSISSNQI [Peptide 89.0185], for which the IC50 in assay [2] was 0.091 µM; in assay [3] it was more than 20 µM; in assay [4], 7.59 µM; in assay [5] it was 1.63 µM; in assay [6], more than 20 µM; in assay [7], 1.33 µM. The IC50 in [8] was 3.76 µM; in assay [9], 1.75 µM; in assay [10] (Binding affinity DRB1 *1101) it was 6.53 µM; in [11] (Binding affinity DRB5 *0101) it was 2.48 µM.

As to KNCILIHGAPNTGKS [Peptide 89.0055], the IC50 was more than 20 µM in assay [2]; 7.3 µM in assay [3]; 3.85 µM in assay [4]; more than 20 µM in assay [5]; 17 µM in assay [6]; 8.91 µM in assay [7]. For the same molecule, the half-maximal inhibitory concentration (IC50) in [8] is 1.4 µM; in [9] it was 0.577 µM; in assay [10] (Binding affinity DRB1 *1101), 19.9 µM; in assay [11] (Binding affinity DRB5 *0101), more than 20 µM.

As to LKEFLKGTPKKNCIL [Peptide 89.0086], the IC50 is 1.62 µM in assay [2]; 5.43 µM in assay [3]; 14.9 µM in [4]; 3.2 µM in assay [5]; 11.9 µM in assay [6]; 6.61 µM in assay [7]. Moreover, the IC50 in assay [8] was 7.81 µM; in assay [9], 2.41 µM; in assay [11] (Binding affinity DRB5 *0101), 4.66 µM.

Take LKVLIKQHSIYTHLQ [Peptide 89.0142]: the IC50 is more than 20 µM in assay [2]; more than 20 µM in assay [3]; more than 20 µM in [4]; more than 20 µM in assay [5]; more than 20 µM in assay [6]; 0.448 µM in assay [7]. The IC50 in assay [8], in assay [9], in assay [10] (Binding affinity DRB1 *1101) and in assay [11] (Binding affinity DRB5 *0101) was more than 20 µM each time.

For LVQLKCPPLLLTSNT [Peptide 89.0077], the IC50 in assay [1] was found to be 0.051 µM; in assay [2], 4.03 µM; in [3] it was 1.09 µM; in assay [4] it was 3.5 µM; in [6], 11.7 µM; in assay [7], 2 µM. The IC50 in [8] is 0.774 µM; in [9], 0.307 µM; in [10] (Binding affinity DRB1 *1101), 17.6 µM; in assay [11] (Binding affinity DRB5 *0101), 4.49 µM.

For QAELETAQALFHAQE [Peptide 89.0022], the IC50 in [2] is 0.122 µM; in assay [3] it was 3.01 µM; in assay [4], 0.592 µM; in assay [5], more than 20 µM; in assay [6], 0.338 µM; in assay [7], 2.78 µM. The IC50 is more than 20 µM in [8], 0.072 µM in assay [9], more than 20 µM in [10] (Binding affinity DRB1 *1101) and 1.95 µM in assay [11] (Binding affinity DRB5 *0101).

Take QKCFKKKGITVTVQY [Peptide 90.0026]: the IC50 in assay [2] was determined as 0.996 µM; in [3] it was 4.39 µM; in [4], 2.91 µM; in assay [5], 1.33 µM; in [6], 0.639 µM; in [7], 0.837 µM. The IC50 is more than 20 µM in assay [8], 1.31 µM in assay [9], 7.82 µM in assay [10] (Binding affinity DRB1 *1101) and more than 20 µM in assay [11] (Binding affinity DRB5 *0101).

For QQLLQVQTAHADKQT [Peptide 89.0115], the IC50 in assay [1] is 1.11 µM; in assay [2], 5.5 µM; in assay [3], more than 20 µM; in assay [4], more than 20 µM; in assay [5], more than 20 µM; in assay [6], more than 20 µM. Moreover, the 50% inhibitory concentration (IC50) is more than 20 µM in assay [7], 10.5 µM in assay [8], 0.932 µM in assay [9] and 0.086 µM in [11].

Regarding RKTIAKALSSILNVP [Peptide 89.0123], the IC50 is more than 20 µM in assay [1]; 11.5 µM in assay [2]; more than 20 µM in assay [3]; more than 20 µM in assay [4]; more than 20 µM in [5]; more than 20 µM in assay [6]. Moreover, the IC50 is more than 20 µM in [7], more than 20 µM in assay [8], 0.746 µM in [9] and more than 20 µM in [10].

Turning to SRVIVCPTSIPSDQI [Peptide 90.0027], the IC50 is more than 20 µM in assay [1]; 1.91 µM in [2]; more than 20 µM in [3]; 6.14 µM in assay [4]; more than 20 µM in assay [6]; 2 µM in [7]. The IC50 in assay [8], in assay [9], in [10] (Binding affinity DRB1 *1101) and in assay [11] (Binding affinity DRB5 *0101) was more than 20 µM each time.

As for TYGVSFMELVRPFKS [Peptide 89.0095], the IC50 in [2] was more than 20 µM; in [3], 7.57 µM; in assay [4], more than 20 µM; in [5], more than 20 µM; in [6] it was more than 20 µM; in assay [7], 0.598 µM. In addition, the IC50 in [8] came to 0.592 µM; in assay [9], 0.389 µM; in assay [11] (Binding affinity DRB5 *0101), 9.07 µM.

With VKFLRYQQIEFVSFL [Peptide 89.0052], the IC50 in assay [2] was 1.28 µM; in assay [3], 4.59 µM; in [4], 2.77 µM; in assay [5], 7.05 µM; in [6] it was 3.21 µM; in [7], 0.024 µM. Moreover, the IC50 in assay [8] came out at 0.535 µM; in assay [9] it was 0.002 µM; in [10] (Binding affinity DRB1 *1101), 1.1 µM; in assay [11] (Binding affinity DRB5 *0101) it was 11.2 µM.

Consider YFKLFLQGTPKHNCL [Peptide 89.0133], for which the IC50 is more than 20 µM in assay [1]; 0.109 µM in [2]; more than 20 µM in assay [3]; 6.12 µM in assay [4]; more than 20 µM in assay [5]; more than 20 µM in assay [6]. The IC50 in assay [7] is 0.193 µM; in assay [8] it was more than 20 µM; in [9], 0.081 µM; in assay [11] (Binding affinity DRB5 *0101), more than 20 µM.

As a reminder, the IC50 is the point on the concentration scale where inhibition reaches its midpoint. Higher therefore signals weaker potency in that assay.

These data come from patent publication US9340577B2, “HLA binding motifs and peptides and their uses” (priority 1992, dated 2016).
